Experimental data reported in paper PMC8287028 (Frontiers in Veterinary Science, 2021).
Values joined by “and” are separate entries in the source; they are usually repeats but may differ in a detail not shown here. Identical values can stand only once. “Also recorded” adds a separate entry of the source.

Experiments:
[1] = Pharmacokinetics after oral apixaban capsules, plasma concentrations by LC/MS; details: for AUC: AUC (area-under-the-curve); for Cmax: CMax (peak concentration); for bioavailability: F% (fraction of oral dose absorbed, bioavailability); for half-life: K10 T½ (apparent elimination half-life); for Vd/F: V/F (volume of distribution per fraction absorbed)
Text: Additionally, drug metabolism might be different in beagles compared with mixed-breed dogs ([33], [34]). […] The study was approved by the Institutional Animal Care and Use Committee (IACUC) at Cornell University College of Veterinary Medicine (Protocol #2019-0099). All dogs were housed at Cornell University and cared for by licensed veterinarians and technicians according to established protocols. All dogs were permanently adopted into private homes after study completion.
To achieve uniform dosing, custom IV (2.5 mg/ml) and oral capsule formulations were created. The protocol for generation of the IV formulation was as previously published ([25]), and all procedures were performed in a laminar flow hood under strict aseptic conditions. […] After vortexing, the formulation was aseptically filtered (Corning 0.22 μm cellulose acetate filter, Millipore-Sigma) then drawn into 10 ml syringes (BD, Franklin Lakes, NJ). The IV formulation was prepared 1 h before administration and stored in the dark at 20-25°C. […] All injection durations were identical. Separately, all dogs received bodyweight appropriate capsule size to provide ~0.2 mg/kg PO once. Capsules were administered without food and witnessed to be ingested. A minimum washout period of 2 weeks elapsed between initial PO administration and subsequent IV administration. The maximum duration of capsule storage prior to administration was 76 days.
On the days of drug administration, 5 Fr × 25 cm trilumen wire-guided catheters (Mila International, Erlanger, KY) were aseptically placed in external jugular veins by modified-Seldinger technique to facilitate atraumatic, repeat blood sample collection. Dogs were sedated with IV butorphanol 0.2 mg/kg and dexmedetomidine 5 μg/kg (Zoetis, Parsippany, NJ) to facilitate catheter placement. Jugular catheters were secured using 3-0 nylon sutures, protected with sterile bandages, and flushed with 0.9% saline (no heparin was used). Dogs were allowed to recover fully from sedation prior to drug administration. […] Catheters were flushed with 0.9% saline, without heparin. Samples were also drawn into K2-EDTA and no-additive tubes at baseline and 24 h post-administration for complete blood counts and serum biochemistry profiles. Dogs were closely monitored for adverse reactions throughout the sample collection period. […] After each sample collection, one citrate anticoagulated whole blood sample was analyzed using thromboelastography (TEG), while the second citrate sample was centrifuged (1,370 g, 10 min, 20°C), the plasma separated, split into two aliquots and then frozen at −80°C pending batch analyses.
In brief, proteins in the sample were initially precipitated by combining 100 μl of plasma sample with 200 μl of 0.1 M ZnSO4 solution and 700 μl of isotope standard stock solution, mixing in a vortex device for 5 s followed by centrifugation (14,000 g, 5 min, RT). The supernatant was added to glass autosampler vials and an aliquot injected into the liquid chromatography 2D UPLC system (Waters Acquity UPLC H-class with 2D Technology System). Sample extraction was performed using a 2.1 × 30 mm reverse phase cartridge (column 1, Waters, XBridge C8, 10 μm) followed by an analytical separation on a 2.1 × 50 mm reverse phase column (column 2, Waters, Acquity UPLC BEH C18, 1.7 μm) and an elution with a linear gradient using water containing 0.1% formic acid and 2 mmol/L ammonium acetate and methanol containing 0.1% formic acid and 2 mmol/L ammonium acetate. […] A 10-point calibration curve was generated with concentrations ranging from 1 to 1,000 ng/ml, with three quality control samples at each of three concentrations (low, 2.5 ng/ml; medium, 50 ng/ml; high, 500 ng/ml).
Where C is the plasma drug concentration, V is the volume of distribution, D is the dose, K10 is the first order elimination rate constant, and T is time. Secondary parameters included area-under-the curve (AUC), systemic clearance (CL), and half-life.

[2] = system: activated partial thromboplastin time; experiment: Activated partial thromboplastin time (aPTT) on citrated plasma of dosed dogs; type: in vivo, dog
Procedure: Coagulation assays were performed on platelet-poor, citrated plasma samples by a reference laboratory (Comparative Coagulation Laboratory, Animal Health Diagnostic Center, Ithaca, NY). […] The assay is configured with a bovine activated Factor X reagent that is added in excess to the test plasma and a chromogenic substrate of Factor Xa (STA Liquid anti-Xa, Diagnostica Stago). Residual, uninhibited Factor Xa cleaves the chromogenic substrate such that the inverse of the color change in the reaction mixture is proportional to the drug concentration in the test plasma. […] Assay controls, consisting of human plasma spiked with apixaban (STA Apixaban Controls, Diagnostica Stago) were analyzed before each batch of test samples to confirm assay performance. The apixaban levels in calibrators and controls are defined by the manufacturer from an internal reference assayed by HPLC-MS. […] A mechanical endpoint method (STA Compact, Diagnostica Stago) and human coagulation reagents were used to measure prothrombin time (Thromboplastin LI, Helena Diagnostics, Beaumont, TX) and activated partial thromboplastin time (Dade Actin FS, Dade Behring, Newark, DE). […]

[3] = target: dog factor Xa; details: in vitro, isolated factor Xa, cited from earlier work
[4] = both, mixed-breed, dog, plasma, po, 0.2 mg/kg, dogs, mean dose 0.2 mg/kg, geometric mean, n = 5
[5] = both, mixed-breed, dog, plasma, po, 0.2 mg/kg, dogs, mean dose 0.2 mg/kg, mean, n = 5
[6] = dogs, PO, mean dose 0.2 mg/kg, model fit, individual dogs (Dog 1-5), 0.2 mg/kg
[7] = dogs, PO, mean dose 0.2 mg/kg, geometric mean, n = 5
[8] = dogs, PO, mean dose 0.2 mg/kg, individual dogs (Dog 1-5), 0.2 mg/kg
[9] = dogs, PO, mean dose 0.2 mg/kg, mean, n = 5

Question: What does the source list for COc1ccc(-n2nc(C(N)=O)c3c2C(=O)N(c2ccc(N4CCCCC4=O)cc2)CC3)cc1 [apixaban]?
Answer: mean maximum observed plasma concentration (CMax) ([1]; both, mixed-breed, dog, in vivo, po): 176 ± 126 ng/mL; CL/F ([1]; both, mixed-breed, dog, in vivo, po, 0.2 mg/kg): 1.88 mL/min/kg; AUC [1, 4]: 1770 ng·h/mL; AUC [1, 5]: 1950 ng·h/mL; CL/F ([1]; both, mixed-breed, dog, plasma, po, 0.2 mg/kg, CL/F (systemic clearance per fraction absorbed), dogs, mean dose 0.2 mg/kg, mean, n = 5): 2.08 mL/min/kg; Cmax ([1]; both, mixed-breed, dog, plasma, po, 0.2 mg/kg, dogs, mean dose 0.2 mg/kg, model fit, geometric mean, n = 5): 196 ng/mL; Cmax ([1]; both, mixed-breed, dog, plasma, po, 0.2 mg/kg, dogs, mean dose 0.2 mg/kg, model fit, mean, n = 5): 223 ng/mL; bioavailability ([1]; both, mixed-breed, dog, plasma, po, 0.2 mg/kg, dogs, PO 0.2 mg/kg vs IV 0.18 mg/kg, geometric mean, n = 5): 24.1%; bioavailability ([1]; both, mixed-breed, dog, plasma, po, 0.2 mg/kg, dogs, PO 0.2 mg/kg vs IV 0.18 mg/kg, mean, n = 5): 28.4%; half-life [1, 4]: 3 h; half-life ([1]; both, mixed-breed, dog, plasma, po, 0.2 mg/kg, dogs, mean dose 0.2 mg/kg, individual dogs (Dog 1-5)): 3.8 h; half-life [1, 5]: 3.1 h; TMax ([1]; both, mixed-breed, dog, plasma, po, 0.2 mg/kg, TMax, dogs, mean dose 0.2 mg/kg, model fit, geometric mean, n = 5): 5 h; TMax ([1]; both, mixed-breed, dog, plasma, po, 0.2 mg/kg, TMax, dogs, mean dose 0.2 mg/kg, model fit, individual dogs (Dog 1-5)): 3.5 h; Vd/F [1, 4]: 0.492 L/kg; Vd/F [1, 5]: 0.534 L/kg; F% (fraction of oral dose absorbed, bioavailability) ([1]; dogs, PO 0.2 mg/kg vs IV 0.18 mg/kg, individual dogs (Dog 1-5)): 35.0% and 51.5% and 15.0% and 10.0% and 30.4%; residual plasma concentrations ([1]; dogs, PO 0.2 mg/kg, quantifiable at the 24-h time point): declined to below the level of quantitation by the 30-h time point; AUC (area-under-the-curve) ([1]; dogs, PO capsule, mean dose 0.2 mg/kg, fasted, individual dogs (Dog 1-5), 0.2 mg/kg): 2,082.4 h*ng/ml and 2,396.3 h*ng/ml and 1,335.5 h*ng/ml and 863.4 h*ng/ml and 3,051.2 h*ng/ml; CMax (peak concentration) [1, 6]: 236.2 ng/mL and 294.3 ng/mL and 165.1 ng/mL and 71.4 ng/mL and 348.5 ng/mL; TMax [1, 6]: 4.4 h and 4.9 h and 6.3 h and 6.1 h; TMax (time to CMax) ([1]; dogs, PO, mean dose 0.2 mg/kg, model fit, mean, n = 5, 0.2 mg/kg): 5 h; K01 (first order absorption rate) [1, 7]: 0.4 h⁻¹; K10 (first order elimination rate) [1, 7]: 0.2 h⁻¹; TLag (lag time for capsule dissolution and stomach emptying) [1, 7]: 1.8 h; CL/F (systemic clearance per fraction absorbed) [1, 8]: 1.64 mL/min/kg and 1.33 mL/min/kg and 2.597 mL/min/kg and 3.668 mL/min/kg and 1.15 mL/min/kg; K01 (first order absorption rate) [1, 8]: 0.7 h⁻¹ and 0.5 h⁻¹ and 0.3 h⁻¹ and 0.2 h⁻¹ and 0.6 h⁻¹; K10 (first order elimination rate) [1, 8]: 0.2 1/h (4×) and 0.3 1/h; TLag (lag time for capsule dissolution and stomach emptying) [1, 8]: 0.9 h and 1.6 h and 1.9 h and 1.8 h and 3.4 h; V/F (volume of distribution per fraction absorbed) [1, 8]: 0.5407 L/kg and 0.3267 L/kg and 0.4659 L/kg and 0.9747 L/kg and 0.3612 L/kg; K01 (first order absorption rate) [1, 9]: 0.5 h⁻¹; K10 (first order elimination rate) [1, 9]: 0.2 h⁻¹; TLag (lag time for capsule dissolution and stomach emptying) ([1]; dogs, PO, mean dose 0.2 mg/kg, mean, n = 5, 0.2 mg/kg): 2 h and 2.0 h; time of mean maximum observed plasma concentration ([1]; dogs, single oral dose 0.20 mg/kg, post-dosing, observed): 6 h; aPTT versus baseline ([2]; IV 0.18 mg/kg, at 5 and 15 min post-injection): significantly prolonged; aPTT versus baseline ([2]; PO 0.2 mg/kg, 0.2 mg/kg): not consistently affected; also recorded: did not have a significant effect; inhibitor constant (Ki) [3]: 0.78 ng/mL; Ki ([3]; read-out: inhibitor constant (Ki)): 1.7 nM
